Laboratory results from BigSolDB 2.1.

Conditions: 298.15 K

With O=C(C(=O)c1ccccc1)c1ccccc1 the solubility (mole fraction) (in 2,2,2-trifluoroethanol) was 0.0352, the solubility (mole fraction) (in 2-butanone) was 0.184 and the solubility (mole fraction) (in 2-methyl-1-pentanol) was 0.0139. It also gave a solubility (mole fraction) (in 3,7-dimethyl-1-octanol) of 0.0173, a solubility (mole fraction) (in DMSO) of 0.0228 and a solubility (mole fraction) (in acetone) of 0.16. The solubility (mole fraction) (in acetonitrile) was 0.0635, the solubility (mole fraction) (in butyronitrile) was 0.151 and the solubility (mole fraction) (in chlorobenzene) was 0.201. It also gave a solubility (mole fraction) (in cyclohexanone) of 0.241, a solubility (mole fraction) (in diethyl ether) of 0.0674 and a solubility (mole fraction) (in diisopropyl ether) of 0.0309. For the same compound, the solubility (mole fraction) (in methyl acetate) was 0.152, the solubility (mole fraction) (in n-decane) was 0.00855 and the solubility (mole fraction) (in n-decanol) was 0.0212. For the same compound, the solubility (mole fraction) (in n-hexadecane) was 0.0118, the solubility (mole fraction) (in propionitrile) was 0.129 and the solubility (mole fraction) (in propylene carbonate) was 0.094. It also gave a solubility (mole fraction) (in tert-butanol) of 0.0106.
